Values belong to the compound of their own block, whether it stands above or below them.
Tests used:
Homo sapiens = species on record: Homo sapiens; experiment: Selectivity ratio of IC50 for inhibition of human Nav1.5 VSD4 F1759A mutant to IC50 for inhibition of human Nav1.5 by automated voltage clamp electrophysiology
[1] = target: T1, Sodium channel protein type 5 subunit alpha (Homo sapiens, UniProt Q14524); experiment: Inhibition of human Nav1.5 by automated voltage clamp electrophysiology
[2] = Inhibition of human Nav1.5 VSD4 R1631A mutant by automated voltage clamp electrophysiology
[3] = Intrinsic clearance in human liver microsomes; type: ADME, Microsome; conditions: read-out: CLH
[4] = Intrinsic clearance in mouse liver microsomes; type: ADME, Microsome; conditions: read-out: CLH
[5] = target: T2, Sodium channel protein type 1 subunit alpha (Homo sapiens, UniProt P35498); experiment: Inhibition of human Nav1.1 expressed in HEK293 cells by sodium influx assay; type: cell-based
[6] = target: Voltage-gated potassium channel, IKs; KCNQ1(Kv7.1)/KCNE1(MinK) (Homo sapiens, UniProt P51787+P15382); experiment: Inhibition of KvLQT1/mink (unknown origin) by voltage clamp method; type: protein-complex assay
[7] = target: T1, Sodium channel protein type 5 subunit alpha; experiment: Inhibition of human Nav1.5 expressed in HEK293 cells assessed as inhibition of peak channel current at holding potential of -95 mV; type: cell-based
[8] = AUC in FVB mouse at 1 mg/kg, iv; type: ADME, organism-based; set-up: dose 1 mg/kg; conditions: in vivo
[9] = Drug uptake in FVB mouse brain at 10 mg/kg, po measured after 2 hrs; type: ADME, organism-based; conditions: read-out: Drug uptake
[10] = target: Voltage-dependent L-type calcium channel subunit alpha-1C (Homo sapiens, UniProt Q13936); experiment: Inhibition of Cav1.2 (unknown origin) by voltage clamp assay
[11] = target: T3, Sodium channel protein type 2 subunit alpha (Homo sapiens, UniProt Q99250); experiment: Inhibition of human Nav1.2 by whole cell voltage clamp analysis
[12] = target: T4, Sodium channel protein type 8 subunit alpha (Homo sapiens, UniProt Q9UQD0); experiment: Inhibition of human Nav1.6 by whole cell voltage clamp analysis
T4 sequence (Q9UQD0 whole entry): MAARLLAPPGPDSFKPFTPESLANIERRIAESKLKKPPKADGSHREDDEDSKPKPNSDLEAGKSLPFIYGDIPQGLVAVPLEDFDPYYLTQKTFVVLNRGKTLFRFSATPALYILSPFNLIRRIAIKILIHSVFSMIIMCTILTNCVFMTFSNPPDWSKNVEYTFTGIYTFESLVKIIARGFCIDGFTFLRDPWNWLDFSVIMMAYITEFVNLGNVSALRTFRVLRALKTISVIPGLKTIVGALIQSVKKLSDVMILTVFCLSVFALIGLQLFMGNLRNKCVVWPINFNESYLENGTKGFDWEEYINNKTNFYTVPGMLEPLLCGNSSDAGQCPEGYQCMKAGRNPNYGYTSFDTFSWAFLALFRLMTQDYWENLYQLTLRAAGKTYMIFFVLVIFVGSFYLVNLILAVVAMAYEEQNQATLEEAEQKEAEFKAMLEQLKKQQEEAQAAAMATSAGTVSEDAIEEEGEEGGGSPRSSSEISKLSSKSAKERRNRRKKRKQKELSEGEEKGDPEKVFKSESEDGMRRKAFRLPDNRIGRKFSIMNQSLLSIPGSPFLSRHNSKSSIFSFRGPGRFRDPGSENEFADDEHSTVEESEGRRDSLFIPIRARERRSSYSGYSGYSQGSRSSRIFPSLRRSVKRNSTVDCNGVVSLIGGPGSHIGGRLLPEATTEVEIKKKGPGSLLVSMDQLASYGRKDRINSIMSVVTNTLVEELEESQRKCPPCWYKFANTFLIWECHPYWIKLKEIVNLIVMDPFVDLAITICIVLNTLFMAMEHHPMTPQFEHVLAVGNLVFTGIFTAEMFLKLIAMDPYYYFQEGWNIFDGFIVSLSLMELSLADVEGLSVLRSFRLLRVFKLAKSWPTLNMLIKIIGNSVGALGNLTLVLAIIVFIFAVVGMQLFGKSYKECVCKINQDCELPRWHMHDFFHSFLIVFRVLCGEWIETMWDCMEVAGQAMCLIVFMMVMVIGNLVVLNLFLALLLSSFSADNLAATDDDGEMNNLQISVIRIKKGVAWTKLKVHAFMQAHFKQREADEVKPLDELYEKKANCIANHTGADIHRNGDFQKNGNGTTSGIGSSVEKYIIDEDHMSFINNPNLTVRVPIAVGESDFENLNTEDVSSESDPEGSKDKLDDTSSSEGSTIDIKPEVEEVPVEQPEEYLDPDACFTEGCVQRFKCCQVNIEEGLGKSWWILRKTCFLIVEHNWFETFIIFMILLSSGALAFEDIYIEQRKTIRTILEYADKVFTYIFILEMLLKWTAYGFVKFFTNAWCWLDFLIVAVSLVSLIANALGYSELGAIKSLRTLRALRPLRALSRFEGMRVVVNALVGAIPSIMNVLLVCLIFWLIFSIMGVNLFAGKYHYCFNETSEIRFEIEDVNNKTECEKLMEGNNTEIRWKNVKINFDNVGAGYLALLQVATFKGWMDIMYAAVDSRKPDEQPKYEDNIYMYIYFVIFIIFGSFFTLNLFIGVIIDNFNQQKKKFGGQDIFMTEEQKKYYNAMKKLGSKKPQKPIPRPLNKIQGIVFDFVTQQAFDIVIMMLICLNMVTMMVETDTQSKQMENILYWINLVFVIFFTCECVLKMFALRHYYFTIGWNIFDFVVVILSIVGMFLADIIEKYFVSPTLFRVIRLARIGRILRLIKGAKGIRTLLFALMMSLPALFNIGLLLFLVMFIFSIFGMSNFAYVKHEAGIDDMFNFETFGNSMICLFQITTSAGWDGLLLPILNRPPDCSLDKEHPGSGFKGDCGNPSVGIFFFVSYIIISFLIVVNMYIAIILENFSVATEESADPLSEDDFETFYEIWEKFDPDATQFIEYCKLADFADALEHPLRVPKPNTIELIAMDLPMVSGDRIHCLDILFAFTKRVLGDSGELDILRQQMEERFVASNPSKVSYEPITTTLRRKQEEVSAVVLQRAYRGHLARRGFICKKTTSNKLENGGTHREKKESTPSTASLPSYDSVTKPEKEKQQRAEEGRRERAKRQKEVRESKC

Cytochrome P450 2C9 = Cytochrome P450 2C9 (Homo sapiens, UniProt P11712); experiment: Inhibition of CYP2C9 (unknown origin); type: ADME
[13] = target: Sodium channel protein type 9 subunit alpha (Homo sapiens, UniProt Q15858); experiment: Inhibition of human Nav1.7 expressed in HEK293 cells by sodium flux analysis; type: cell-based
[14] = target: T2, Sodium channel protein type 1 subunit alpha; experiment: Inhibition of human Nav1.1 by whole cell voltage clamp analysis
[15] = Oral bioavailability in FVB mouse at 10 mg/kg; type: ADME, organism-based; conditions: in vivo
[16] = Volume of distribution at steady state in FVB mouse at 1 mg/kg, iv; type: ADME, organism-based; conditions: in vivo, read-out: Vdss
[17] = Clearance in FVB mouse at 1 mg/kg, iv; type: ADME, organism-based; conditions: in vivo
[18] = Anti-arrythmic activity in human iPSC-derived cardiomyocytes assessed as reduction in upstroke velocity dV/dt(Vmax) at 100 nM in presence of 15 to 30 nM ATX-II by current clamp analysis; type: functional; conditions: iPSC-CM
Cytochrome P450 1A2 = Cytochrome P450 1A2 (Homo sapiens, UniProt P05177); experiment: Inhibition of CYP1A2 (unknown origin); type: ADME
Cytochrome P450 2C19 = Cytochrome P450 2C19 (Homo sapiens, UniProt P33261); experiment: Inhibition of CYP2C19 (unknown origin); type: ADME
[19] = Plasma concentration in FVB mouse at 10 mg/kg, po measured after 2 hrs; type: ADME, organism-based
[20] = target: T1, Sodium channel protein type 5 subunit alpha; experiment: Inhibition of human Nav1.5 expressed in HEK293 cells by sodium influx assay; type: cell-based
[21] = Cmax in FVB mouse at 10 mg/kg, po; type: ADME, organism-based; set-up: route oral, dose 10 mg/kg; conditions: in vivo
[22] = target: Kv channel-interacting protein 2/Potassium voltage-gated channel subfamily D member 3 (Homo sapiens, UniProt Q9UK17+Q9NS61); experiment: Inhibition of Kv4.3/KChIP2.2 (unknown origin) by voltage clamp method; type: protein-complex assay
Kv channel-interacting protein 2/Potassium voltage-gated channel subfamily D member 3, sequence (Q9UK17 whole entry): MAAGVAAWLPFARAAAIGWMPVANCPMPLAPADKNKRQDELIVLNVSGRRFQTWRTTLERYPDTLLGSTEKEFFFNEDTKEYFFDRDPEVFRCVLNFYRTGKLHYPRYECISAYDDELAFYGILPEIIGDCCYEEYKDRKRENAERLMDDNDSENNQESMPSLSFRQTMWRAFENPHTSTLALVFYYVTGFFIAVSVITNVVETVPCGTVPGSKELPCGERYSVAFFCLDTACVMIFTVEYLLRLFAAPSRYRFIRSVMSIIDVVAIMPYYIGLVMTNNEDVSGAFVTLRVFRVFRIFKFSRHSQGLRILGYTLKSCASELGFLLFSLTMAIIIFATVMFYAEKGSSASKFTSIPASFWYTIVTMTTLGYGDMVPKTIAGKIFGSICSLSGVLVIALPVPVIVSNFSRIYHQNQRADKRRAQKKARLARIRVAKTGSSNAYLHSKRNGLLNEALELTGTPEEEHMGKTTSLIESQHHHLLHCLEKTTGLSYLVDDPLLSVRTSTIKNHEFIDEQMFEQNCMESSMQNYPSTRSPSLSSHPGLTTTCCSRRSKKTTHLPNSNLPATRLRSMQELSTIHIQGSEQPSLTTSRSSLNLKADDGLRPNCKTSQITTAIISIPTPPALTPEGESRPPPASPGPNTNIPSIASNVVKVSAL
Kv channel-interacting protein 2/Potassium voltage-gated channel subfamily D member 3, sequence (Q9NS61 whole entry): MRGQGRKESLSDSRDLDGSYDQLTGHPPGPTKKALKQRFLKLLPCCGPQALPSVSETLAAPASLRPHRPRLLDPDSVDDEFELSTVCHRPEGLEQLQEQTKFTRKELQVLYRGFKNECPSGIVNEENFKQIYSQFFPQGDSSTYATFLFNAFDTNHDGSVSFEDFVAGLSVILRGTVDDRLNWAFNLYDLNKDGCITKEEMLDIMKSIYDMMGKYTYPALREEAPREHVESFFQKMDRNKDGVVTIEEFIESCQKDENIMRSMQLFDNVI

[23] = target: T3, Sodium channel protein type 2 subunit alpha; experiment: Inhibition of human Nav1.2 expressed in HEK293 cells by sodium influx assay; type: cell-based
[24] = target: T1, Sodium channel protein type 5 subunit alpha; experiment: Displacement of [3H]BNZA from Nav1.5 (unknown origin)
[25] = Half life in FVB mouse at 1 mg/kg, iv; type: ADME, organism-based; conditions: in vivo
[26] = AUC in FVB mouse at 10 mg/kg, po; type: ADME, organism-based; set-up: dose 10 mg/kg; conditions: in vivo
[27] = Ratio of drug level in brain to plasma in FVB mouse at 10 mg/kg, po measured after 2 hrs; type: ADME, organism-based; conditions: read-out: BPR
Cytochrome P450 2D6 = Cytochrome P450 2D6 (Homo sapiens, UniProt P10635); experiment: Inhibition of CYP2D6 (unknown origin); type: ADME
[28] = target: T4, Sodium channel protein type 8 subunit alpha; experiment: Inhibition of human Nav1.6 by V1/2 protocol based analysis
hERG (KCNH2) = hERG (KCNH2) (Homo sapiens, UniProt Q12809); experiment: Inhibition of human ERG at 10 uM by voltage clamp method
[29] = target: T1, Sodium channel protein type 5 subunit alpha; experiment: Inhibition of human Nav1.5 expressed in HEK293 cells assessed as inhibition of late channel current at holding potential of -95 mV; type: cell-based
[30] = target: T1, Sodium channel protein type 5 subunit alpha; experiment: Inhibition of human Nav1.5 by V1/2 protocol based analysis
[31] = Anti-arrythmic activity in human iPSC-derived cardiomyocytes assessed as shortening of ATX-II induced APD90 prolongation at 100 nM in presence of 15 to 30 nM ATX-II by current clamp analysis; type: functional; conditions: iPSC-CM
Nav1.5 (SCN5A) = Nav1.5 (SCN5A) (Homo sapiens, UniProt Q14524); experiment: State dependent inhibition of human Nav1.5 expressed in HEK293 cells assessed as shift in compound IC50 at rested state at membrane potential of -120 mV relative to partially inactivated state at membrane potential of -95 mV; type: cell-based; conditions: HEK293 cells that express human Nav1.5, read-out: FC
[32] = target: T3, Sodium channel protein type 2 subunit alpha; experiment: Inhibition of human Nav1.2 by V1/2 protocol based analysis
[33] = Half life in FVB mouse at 10 mg/kg, po; type: ADME, organism-based; conditions: in vivo
Cytochrome P450 3A4 = Cytochrome P450 3A4 (Homo sapiens, UniProt P08684); experiment: Inhibition of CYP3A4 (unknown origin); type: ADME
[34] = target: T2, Sodium channel protein type 1 subunit alpha; experiment: Inhibition of human Nav1.1 by V1/2 protocol based analysis
[35] = target: T4, Sodium channel protein type 8 subunit alpha; experiment: Inhibition of human Nav1.6 expressed in HEK293 cells by sodium influx assay; type: cell-based

T1 sequence (Q14524 whole entry): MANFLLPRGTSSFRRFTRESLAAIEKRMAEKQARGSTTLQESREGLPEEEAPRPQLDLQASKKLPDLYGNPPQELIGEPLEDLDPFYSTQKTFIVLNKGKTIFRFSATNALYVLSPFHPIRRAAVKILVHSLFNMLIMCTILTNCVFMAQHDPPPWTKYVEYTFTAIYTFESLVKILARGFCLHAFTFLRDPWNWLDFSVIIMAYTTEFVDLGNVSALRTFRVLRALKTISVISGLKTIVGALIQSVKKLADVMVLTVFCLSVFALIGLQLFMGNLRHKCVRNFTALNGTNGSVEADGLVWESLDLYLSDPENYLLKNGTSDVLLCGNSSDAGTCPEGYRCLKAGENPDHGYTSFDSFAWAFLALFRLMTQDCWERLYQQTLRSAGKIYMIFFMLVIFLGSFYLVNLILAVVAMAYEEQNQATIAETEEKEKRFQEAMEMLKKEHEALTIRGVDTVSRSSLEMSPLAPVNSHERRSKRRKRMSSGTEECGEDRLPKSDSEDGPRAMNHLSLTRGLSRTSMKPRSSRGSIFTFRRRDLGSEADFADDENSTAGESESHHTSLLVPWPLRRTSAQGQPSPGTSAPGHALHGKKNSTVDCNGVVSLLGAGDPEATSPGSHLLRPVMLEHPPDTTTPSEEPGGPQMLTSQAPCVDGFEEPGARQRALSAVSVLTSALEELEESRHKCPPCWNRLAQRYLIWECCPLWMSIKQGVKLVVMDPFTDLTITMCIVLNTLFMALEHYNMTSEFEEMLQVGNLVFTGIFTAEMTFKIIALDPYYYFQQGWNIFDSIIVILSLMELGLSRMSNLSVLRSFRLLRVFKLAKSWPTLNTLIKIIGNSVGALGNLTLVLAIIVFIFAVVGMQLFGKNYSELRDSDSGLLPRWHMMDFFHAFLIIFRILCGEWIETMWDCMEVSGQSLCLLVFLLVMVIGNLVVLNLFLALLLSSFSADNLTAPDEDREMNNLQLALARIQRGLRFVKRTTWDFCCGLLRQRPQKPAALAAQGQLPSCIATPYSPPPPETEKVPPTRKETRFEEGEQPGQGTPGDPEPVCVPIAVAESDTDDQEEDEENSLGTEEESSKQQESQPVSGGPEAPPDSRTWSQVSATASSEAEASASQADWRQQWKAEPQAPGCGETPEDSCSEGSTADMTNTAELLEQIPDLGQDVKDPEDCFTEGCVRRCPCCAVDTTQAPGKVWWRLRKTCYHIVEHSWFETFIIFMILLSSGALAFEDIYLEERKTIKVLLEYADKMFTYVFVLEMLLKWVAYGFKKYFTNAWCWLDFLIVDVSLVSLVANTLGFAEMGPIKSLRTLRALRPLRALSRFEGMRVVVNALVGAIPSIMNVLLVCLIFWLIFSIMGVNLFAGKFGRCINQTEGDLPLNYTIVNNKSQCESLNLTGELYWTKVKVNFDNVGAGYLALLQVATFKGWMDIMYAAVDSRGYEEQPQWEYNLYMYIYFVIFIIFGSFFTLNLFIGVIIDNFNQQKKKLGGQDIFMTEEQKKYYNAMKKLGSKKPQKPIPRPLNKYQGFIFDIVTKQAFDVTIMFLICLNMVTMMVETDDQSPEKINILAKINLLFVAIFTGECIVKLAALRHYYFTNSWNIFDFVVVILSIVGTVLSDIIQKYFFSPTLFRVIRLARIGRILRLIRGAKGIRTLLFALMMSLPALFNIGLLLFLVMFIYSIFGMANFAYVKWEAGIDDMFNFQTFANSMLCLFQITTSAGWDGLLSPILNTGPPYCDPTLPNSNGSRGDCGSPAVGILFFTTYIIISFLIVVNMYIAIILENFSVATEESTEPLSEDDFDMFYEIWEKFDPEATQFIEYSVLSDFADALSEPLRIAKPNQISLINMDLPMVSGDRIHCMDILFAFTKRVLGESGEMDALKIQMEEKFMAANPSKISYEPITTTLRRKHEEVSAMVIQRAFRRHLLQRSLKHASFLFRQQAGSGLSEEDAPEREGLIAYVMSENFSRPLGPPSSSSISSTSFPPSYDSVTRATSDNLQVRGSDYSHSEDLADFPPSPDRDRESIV

Compound: O=S(=O)(Nc1cccc(F)n1)c1cc(F)c(OC2CCN(CC(F)(F)F)CC2c2ccc(F)c(F)c2)cc1F (single isomer, unassigned; (-))
- Ratio IC50 (Homo sapiens): > 40

Compound: O=S(=O)(Nc1cscn1)c1cc(F)c(O[C@H]2CCN(CC(F)(F)F)C[C@@H]2c2ccccc2)cc1F (racemic)
- IC50 [1]: 1180 nM
- IC50 [2]: 1170 nM

- CLint scaled [3]: 8.4 mL/min/kg
- CLint scaled [4]: 63 mL/min/kg
Compound: O=S(=O)(Nc1cccc(F)n1)c1cnc(O[C@H]2CCN(CC(F)(F)F)C[C@@H]2c2ccc(F)c(F)c2)c(F)c1 (racemic)
- IC50 [1]: 1550 nM

- IC50 [5]: 560 nM
- inhibition (INH) [6]: Not Active
- AUC [8]: 7.6 µM·h
- concentration at 2 h [9]: 2.03 µM
- IC50 [11]: 270 nM
- IC50 [12]: 230 nM
- IC50 (Cytochrome P450 2C9): 2200 nM
- IC50 [13]: 220 nM
- IC50 [14]: 620 nM
- bioavailability [15]: 39%
- Vd [16]: 0.8 L/kg
- clearance [17]: 3.8 mL/min/kg
- inhibition (INH) (Cytochrome P450 1A2): Not Active
- inhibition (INH) (Cytochrome P450 2C19): Not Active
- concentration at 2 h [19]: 6.44 µM
- Cmax [21]: 3.6 µM
- inhibition (INH) [22]: Not Active
- IC50 [23]: 270 nM
- half-life [25]: 2.6 h
- AUC [26]: 30 µM·h
- Kp at 2 h [27]: 0.32
- inhibition (INH) (Cytochrome P450 2D6): Not Active
- IC50 [28]: 110 nM
- IC50 [32]: 12 nM
- half-life [33]: 2.7 h
- inhibition (INH) (Cytochrome P450 3A4): Not Active
- IC50 [34]: 90 nM
- IC50 [35]: 110 nM
Compound: O=S(=O)(Nc1cccc(F)n1)c1cc(F)c(O[C@H]2CCN(CC(F)(F)F)C[C@@H]2c2ccc(F)c(F)c2)c(F)c1 (stereo in doubt; (-)-6)
- IC50 [1]: 39 nM
- IC50 [7]: 17.7 nM
- inhibition (INH) [10]: Not Active
- inhibition at 0.1 µM [18]: 23%
- IC50 [20]: 44 nM
- Ki [24]: 370 nM
- inhibition at 10 µM (hERG (KCNH2)): 5%
- IC50 [29]: 15.8 nM
- IC50 [30]: 110 nM
- inhibition at 0.1 µM [31]: 84%
- selectivity ratio (Nav1.5 (SCN5A)): 24

Source: ChEMBL document CHEMBL4811281, “Identification of aryl sulfonamides as novel and potent inhibitors of NaV1.5” (Bioorg Med Chem Lett, 2021)
